Data on 6 compounds can be found in US20260137084A1, “NOVALURON MIXTURES FOR EFFICIENT INSECTICIDAL CONTROLS” (ADAMA MAKHTESHIM LTD., priority 2022, published 2026).

One assay relates to H. armigera. Put plainly: Insecticidal efficacy (% control) and Colby synergy against H. armigera. It counts as in vivo, Helicoverpa armigera. Particulars: 120 hours after treatment. As for the experimental part:
(§1) Different concentrations of each of the active ingredients are applied to different species of insects. The percent controls are determined sometime after treatment.
(§2) Colby's method, is used to determine if synergy exists for a combination of active ingredients. According to Colby, the expected action (E) of active ingredients A+B is:
(§3) [formula] • where E=expected efficacy, A and B=the efficacy of two active ingredients A and B at a given dose.
(§4) When the percentage of control observed (O) for the combination is greater than the expected (E) percentage, there is a synergistic effect. The synergism ratio (R) is calculated as the ratio between the […].
(§5) The insecticidal compounds A (Novaluron) and B (mix partner) are formulated as equivalent compositions to eliminate the effects of differing formulation inerts on biological activity. Efficacy of the insecticidal compositions is evaluated with reference to a scale of 0% to 100% in comparison with untreated control plots. 0 means no damage and 100 means complete destruction of the harmful pests.
(§6) The experiments were conducted by applying commercially available formulations of Novaluron and other mixture partners, alone or with their tank-mixed compositions with the same weight ratio. The compositions were diluted with water or some other suitable solvents to the stated concentration of the active compounds.
(§7) Each formulation with active ingredient is diluted with water or other suitable solvent(s) to the ppm (parts per million) level and biological efficacy trials on pests are conducted.

Another assay has as its system S. frugiperda. The assay can be described thus: Insecticidal efficacy (% control) and Colby synergy against S. frugiperda. The format is in vivo, Spodoptera frugiperda. To be noted: 120 hours after treatment. On the procedure:
as §1, §2, §3, §4, §5, §6, §7

Take `O=C(NC(=O)c1c(F)cccc1F)Nc1ccc(OC(F)(F)C(F)OC(F)(F)F)c(Cl)c1` (single isomer, unassigned; (+)) [Novaluron, (+)-1-[3-chloro-4-(1,1,2-trifluoro-2-trifluoromethoxyethoxy)phenyl]-3-(2,6-difluorobenzoyl) urea]: the “Observed % control (O)” value is 20% with H. armigera (Rate 0.1 ppm), 20% with H. armigera (Rate 0.2 ppm) and 16% with S. frugiperda (Rate 0.01 ppm).
Take `Cc1cccn2c(=O)c(-c3cc(Cl)cc(Cl)c3)c([O-])[n+](Cc3cnc(Cl)s3)c12` [Dicloromezotiaz]: the “Observed % control (O)” value in the assay with H. armigera (Rate 40 ppm) is 40%; in the assay with S. frugiperda (Rate 1 ppm) it was 0%; with S. frugiperda (Rate 2.5 ppm), 40%; in the assay with S. frugiperda (Rate 5 ppm) it was 20%.
With `O=C(N=c1ccccn1Cc1ccc(Cl)nc1)C(F)(F)F` [Flupyrimin], the “Observed % control (O)” value in the assay with S. frugiperda (Rate 10 ppm) was 10%.
In the case of `CCN1OCC(NC(=O)c2ccc(C3=NOC(c4cc(Cl)c(F)c(Cl)c4)(C(F)(F)F)C3)cc2C)C1=O` (centres unmarked) [Isocycloseram], the “Observed % control (O)” value amounted to 20% with H. armigera (Rate 10 ppm), 50% in the assay on H. armigera (Rate 20 ppm), 20% in the assay on S. frugiperda (Rate 5 ppm) and 20% in the assay with S. frugiperda (Rate 10 ppm).
Take `CCN(C(=O)CCSCCC(F)(F)F)c1cn(-c2cccnc2)nc1Cl` [Tyclopyrazoflor]: the “Observed % control (O)” value with H. armigera (Rate 160 ppm) and in the assay with S. frugiperda (Rate 5 ppm) was 20% in each case.
Regarding Nicofluprole, the “Observed % control (O)” value in the assay on H. armigera (Rate 5 ppm) amounted to 30%; in the assay with S. frugiperda (Rate 0.5 ppm) it was 20%; in the assay with S. frugiperda (Rate 1 ppm), 40%.
